Values of other authors, collected in publication PMC8513424 (Laryngoscope Investigative Otolaryngology, 2021).

Tests used:
[1] = tested on: isogenic VS‐ and meningioma‐related cell lines with or without NF2 expression; settings: among 19 small molecules; cited from earlier work
meningiomas = settings: cited from earlier work

Row | Compound | Activity across schwannoma and meningioma cell models [1] | Response of meningiomas (meningiomas)
1 | COc1ccc(-c2nc(N3CCOCC3)c3sc(CN(C)c4ncc(C(=O)NO)cn4)cc3n2)cn1 [CUDC‐907] | greatest activity | –
2 | Cc1[nH]c2ccccc2c1CCNCc1ccc(/C=C/C(=O)NO)cc1 [panobinostat] | greatest activity | –
3 | bevacizumab | – | do not respond
